In patent US9828389B2, “Tetrazolinone compounds and their use as pesticides” (SUMITOMO CHEMICAL COMPANY, LIMITED, priority 2012, dated 2017):

Key:
[1] = tested on: cotton aphid (Aphis gossypii); experiment: Cotton aphid control test, spray on infested cucumber; type: in vivo; conditions: 144 h, 20 mL sprayed on cucumber with 30 aphids, counted after 6 days
Experimental: Cucumber (cv; Sagami-hanjiro-fushinari) was grown in a polyethylene cup until the first true leaf was developed. Thirty (30) heads of cotton aphid (Aphis gossypii) (including the adults and the larvae) was released onto the leaves of the […] and next day, the above-mentioned testing drug dilutions 20 mL were sprayed. […] Control value (%)={1−(Cb×Tai)/(Cai×Tb)}×100 wherein the symbols in the formula represent the following descriptions. Cb: Number of the insects before treatment in untreated area; Cai: Number of the insects at the time of the observation in untreated area; Tb: Number of the insects before treatment in treated area; Tai: Number of the insects at the time of the observation in treated area;

[2] = tested on: wheat rust fungi (Puccinia recondita); experiment: Wheat rust control test, foliar spray on wheat; type: in vivo; conditions: Comparative Test Example: wheat (cv; Shirogane), foliar spray 500 ppm, inoculated after 5 days, observed after 1+8 days
Experimental: The spores of wheat rust fungi (Puccinia recondita) were sprinkling-inoculated. After inoculation, the plants were placed under a dark and humid condition at 23° C. for 1 day and were then cultivated at 20° C. under lighting for 8 days and a lesion area was observed.

| Structure (SMILES) | pest or weed control at 500 ppm [1] [%] | lesion area compared to the lesion area in untreated plants [2] [%] |
| --- | --- | --- |
| Cc1cc(C)n(-c2ccc(OCc3c(Cl)cccc3-n3nnn(C)c3=O)c(Cl)c2)n1 [Present compound 9, 1-{3-chloro-2-[2-chloro-4-(3,5-dimethyl-pyrazol-1-yl)-phenoxymethyl]-phenyl}-4-methyl-1,4-dihydrotetrazole-5-one] | ≥ 90 |  |
| Cc1cc(C)n(-c2ccc(OCc3c(Cl)cccc3-n3nnn(C)c3=O)cc2Cl)n1 [Present compound 11, 1-{3-chloro-2-[3-chloro-4-(3,5-dimethyl-pyrazol-1-yl)-phenoxymethyl]-phenyl}-4-methyl-1,4-dihydrotetrazole-5-one] | ≥ 90 |  |
| Cc1ccn(-c2ccc(OCc3c(C)cccc3-n3nnn(C)c3=O)c(C)c2)n1 [Present compound 22, 1-{3-methyl-2-[2-methyl-4-(3-methyl-pyrazol-1-yl)-phenoxymethyl]-phenyl}-4-methyl-1,4-dihydrotetrazole-5-one] | ≥ 90 |  |
| CCc1cccc(-n2nnn(C)c2=O)c1COc1ccc(-n2nc(C)cc2C)cc1C [Present compound 50, 1-{3-ethyl-2-[2-methyl-4-(3,5-dimethyl-pyrazol-1-yl)-phenoxymethyl]-phenyl}-4-methyl-1,4-dihydrotetrazole-5-one] | ≥ 90 |  |
| CCc1cccc(-n2nnn(C)c2=O)c1COc1ccc(-n2cc(C)c(C)n2)cc1C [Present compound 53, 1-{3-ethyl-2-[2-methyl-4-(3,4-dimethyl-pyrazol-1-yl)-phenoxymethyl]-phenyl}-4-methyl-1,4-dihydrotetrazole-5-one] | ≥ 90 |  |
| CCc1cccc(-n2nnn(C)c2=O)c1COc1ccc(-c2cc(C)n(C)n2)cc1C [Present compound 59, 1-{3-ethyl-2-[2-methyl-4-(1,5-dimethyl-1H-pyrazol-3-yl)-phenoxymethyl]-phenyl}-4-methyl-1,4-dihydrotetrazole-5-one] | ≥ 90 |  |
| COc1cccc(-n2nnn(C)c2=O)c1COc1ccc(-c2cnn(C)c2)cc1C [Present compound 68, 1-{3-methoxy-2-[2-methyl-4-(1-methyl-1H-pyrazole-4-yl)-phenoxymethyl]-phenyl}-4-methyl-1,4-dihydrotetrazole-5-one] | ≥ 90 |  |
| COc1cccc(-n2nnn(C)c2=O)c1COc1ccc(-c2cnn(CC(C)C)c2)cc1C [Present compound 77, 1-{3-methoxy-2-[2-methyl-4-(1-isobutyl-1H-pyrazole-4-yl)-phenoxymethyl]-phenyl}-4-methyl-1,4-dihydrotetrazole-5-one] | ≥ 90 |  |
| CCn1ccc(-c2ccc(OCc3c(OC)cccc3-n3nnn(C)c3=O)c(C)c2)n1 [Present compound 87, 1-{3-methoxy-2-[2-methyl-4-(1-ethyl-1H-pyrazol-3-yl)-phenoxymethyl]-phenyl}-4-methyl-1,4-dihydrotetrazole-5-one] | ≥ 90 |  |
| COc1cccc(-n2nnn(C)c2=O)c1COc1ccc(-c2ccn(S(C)(=O)=O)n2)cc1C [Present compound 112, 1-{3-methoxy-2-[2-methyl-4-(1-methanesulfonyl-1H-pyrazol-3-yl)-phenoxymethyl]-phenyl}-4-methyl-1,4-dihydrotetrazole-5-one] | ≥ 90 |  |
| CCOc1cccc(-n2nnn(C)c2=O)c1COc1ccc(-n2cc(C)c(C)n2)cc1C [Present compound 129, 1-{3-ethoxy-2-[2-methyl-4-(3,4-dimethyl-pyrazol-1-yl)-phenoxymethyl]-phenyl}-4-methyl-1,4-dihydrotetrazole-5-one] | ≥ 90 |  |
| COc1cccc(-n2nnn(C)c2=O)c1COc1ccc(-c2nn(C)cc2C)cc1Cl [Present compound 154, 1-{3-methoxy-2-[2-chloro-4-(1,4-dimethyl-1H-pyrazol-3-yl)-phenoxymethyl]-phenyl}-4-methyl-1,4-dihydrotetrazole-5-one] | ≥ 90 |  |
| CCc1cccc(-n2nnn(C)c2=O)c1COc1ccc(-c2nn(C)c(Cl)c2C)cc1C [Present compound 206, 1-{3-ethyl-2-[2-methyl-4-(5-chloro-1,4-dimethyl-1H-pyrazol-3-yl)-phenoxymethyl]-phenyl}-4-methyl-1,4-dihydrotetrazole-5-one] | ≥ 90 |  |
| Cc1cc(-c2nn(C)c(Cl)c2C)ccc1OCc1c(-n2nnn(C)c2=O)cccc1C(F)(F)F [Present compound 209, 1-{2-[2-methyl-4-(5-chloro-1,4-dimethyl-1H-pyrazol-3-yl)-phenoxymethyl]-3-trifluoromethyl-phenyl}-4-methyl-, 4-dihydrotetrazole-5-one] | ≥ 90 |  |
| CCOc1cccc(-n2nnn(C)c2=O)c1COc1ccc(-c2nn(C)c(Cl)c2C)cc1C [Present compound 210, 1-{3-ethoxy-2-[2-methyl-4-(5-chloro-1,4-dimethyl-1H-pyrazol-3-yl)-phenoxymethyl]-phenyl}-4-methyl-1,4-dihydrotetrazole-5-one] | ≥ 90 |  |
| Cc1cc(C)n(-c2ccc(OCc3ccccc3-n3nnn(C)c3=O)c(Cl)c2)n1 [control compound, 1-{2-{2-chloro-4-(3,5-dimethyl-pyrazole-1-yl)-phenoxymethyl}-phenyl}-4-methyl-1,4-dihydrotetrazole-5-one] |  | ≥ 70 |
